Data: article PMC9116245, “New 1,2,3-triazole linked ciprofloxacin-chalcones induce DNA damage by inhibiting human topoisomerase I& II and tubulin polymerization” (Journal of Enzyme Inhibition and Medicinal Chemistry, 2022)

What was measured:
Assay in all cases: NCI one-dose screen
Type in all cases: cell-based
NCI-H23 = conditions: Homo sapiens; NCI-H23, 10 µM; read-out: Growth Percent
Procedure, shortened: (§1)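 Single dose, 10 µM; 59-line human tumour panel (nine subpanels); read-out growth percent per NCI-60 standard method.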

T-47D = conditions: Homo sapiens, T47D, read-out: Growth Percent
Procedure, shortened: as §1

MDA-MB-435 = conditions: Homo sapiens; MDA-MB-435, 10 µM; read-out: Growth Percent
Procedure, shortened: as §1

UO-31 = conditions: Homo sapiens; UO-31, 10 µM; read-out: Growth Percent
Procedure, shortened: as §1

OVCAR-4 = conditions: Homo sapiens; OVCAR-4, 10 µM; read-out: Growth Percent
Procedure, shortened: as §1

SF-295 = conditions: Homo sapiens; SF-295, 10 µM; read-out: Growth Percent
Procedure, shortened: as §1

CCRF-CEM = conditions: Homo sapiens, read-out: Growth Percent
Procedure, shortened: as §1

M14 = conditions: Homo sapiens; M14, 10 µM; read-out: Growth Percent
Procedure, shortened: as §1

NCI-H522 = conditions: Homo sapiens; NCI-H522, 10 µM; read-out: Growth Percent
Procedure, shortened: as §1

COLO 205 = conditions: Homo sapiens; COLO 205, 10 µM; read-out: Growth Percent
Procedure, shortened: as §1

HCC-2998 = conditions: Homo sapiens; HCC-2998, 10 µM; read-out: Growth Percent
Procedure, shortened: as §1

NCI-H460 = conditions: Homo sapiens; NCI-H460, 10 µM; read-out: Growth Percent
Procedure, shortened: as §1

PC-3 = conditions: Homo sapiens; PC-3, 10 µM; read-out: Growth Percent
Procedure, shortened: as §1

MDA-MB-468 = conditions: Homo sapiens; MDA-MB-468, 10 µM; read-out: Growth Percent
Procedure, shortened: as §1

HOP-92 = conditions: Homo sapiens; HOP-92, 10 µM; read-out: Growth Percent
Procedure, shortened: as §1

A549/ATCC = conditions: Homo sapiens, read-out: Growth Percent
Procedure, shortened: as §1

MALME-3M = conditions: Homo sapiens, read-out: Growth Percent
Procedure, shortened: as §1

RXF 393 = conditions: Homo sapiens; RXF 393, 10 µM; read-out: Growth Percent
Procedure, shortened: as §1

MCF7 = conditions: Homo sapiens; MCF7, 10 µM; read-out: Growth Percent
Procedure, shortened: as §1

HL-60(TB) = conditions: Homo sapiens, read-out: Growth Percent
SK-MEL-5 = conditions: Homo sapiens; SK-MEL-5, 10 µM; read-out: Growth Percent
Procedure, shortened: as §1

NCI/ADR-RES = conditions: Homo sapiens, read-out: Growth Percent
Procedure, shortened: as §1

SF-268 = conditions: Homo sapiens; SF-268, 10 µM; read-out: Growth Percent
Procedure, shortened: as §1

HS 578T = conditions: Homo sapiens, read-out: Growth Percent
Procedure, shortened: as §1

ACHN = conditions: Homo sapiens, read-out: Growth Percent
Procedure, shortened: as §1

A498 = conditions: Homo sapiens; A498, 10 µM; read-out: Growth Percent
Procedure, shortened: as §1

HCT-15 = conditions: Homo sapiens; HCT-15, 10 µM; read-out: Growth Percent
Procedure, shortened: as §1

LOX IMVI = conditions: Homo sapiens, read-out: Growth Percent
Procedure, shortened: as §1

HOP-62 = conditions: Homo sapiens; HOP-62, 10 µM; read-out: Growth Percent
Procedure, shortened: as §1

## O=C(/C=C/c1ccc(Cl)cc1)c1ccc(-n2cc(CN3CCN(c4cc5c(cc4F)c(=O)c(C(=O)O)cn5C4CC4)CC3)nn2)cc1 [Compound 4c, (E)-7-(4-((1-(4-(3-(4-chlorophenyl)acryloyl)phenyl)-1H-1,2,3-triazol-4-yl)methyl)piperazin-1-yl)-1-cyclopropyl-6-fluoro-4-oxo-1,4-dihydroquinoline-3-carboxylic acid]
NCI-H23
  activity at 10 µM: 79.7%
T-47D
  activity at 10 µM: 92.9%
MDA-MB-435
  activity at 10 µM: 79.5%
UO-31
  activity at 10 µM: 62.5%
OVCAR-4
  activity at 10 µM: 89.7%
SF-295
  activity at 10 µM: 91.7%
CCRF-CEM
  activity at 10 µM: 64.9%
M14
  activity at 10 µM: 84.4%
NCI-H522
  activity at 10 µM: 80.1%
COLO 205
  activity at 10 µM: 108%
HCC-2998
  activity at 10 µM: 88.3%
NCI-H460
  activity at 10 µM: 76.1%
PC-3
  activity at 10 µM: 79.3%
MDA-MB-468
  activity at 10 µM: 66%
HOP-92
  activity at 10 µM: 79.6%
A549/ATCC
  activity at 10 µM: 88.9%
MALME-3M
  activity at 10 µM: 91.2%
RXF 393
  activity at 10 µM: 58.3%
MCF7
  activity at 10 µM: 58.2%
HL-60(TB)
  activity at 10 µM: 99.1%
SK-MEL-5
  activity at 10 µM: 77.6%
NCI/ADR-RES
  activity at 10 µM: 87%
SF-268
  activity at 10 µM: 70.4%
HS 578T
  activity at 10 µM: 67.4%
ACHN
  activity at 10 µM: 93.5%
A498
  activity at 10 µM: 52.2%
HCT-15
  activity at 10 µM: 91.6%
LOX IMVI
  activity at 10 µM: 36.2%
HOP-62
  activity at 10 µM: 79.6%

## O=C(/C=C/c1ccc(Br)cc1)c1ccc(-n2cc(CN3CCN(c4cc5c(cc4F)c(=O)c(C(=O)O)cn5C4CC4)CC3)nn2)cc1 [Compound 4d, (E)-7-(4-((1-(4-(3-(4-bromophenyl)acryloyl)phenyl)-1H-1,2,3-triazol-4-yl)methyl)piperazin-1-yl)-1-cyclopropyl-6-fluoro-4-oxo-1,4-dihydroquinoline-3-carboxylic acid]
NCI-H23
  activity at 10 µM: 77.6%
T-47D
  activity at 10 µM: 101%
MDA-MB-435
  activity at 10 µM: 81.9%
UO-31
  activity at 10 µM: 65.4%
OVCAR-4
  activity at 10 µM: 96.7%
SF-295
  activity at 10 µM: 81.9%
CCRF-CEM
  activity at 10 µM: 34.6%
M14
  activity at 10 µM: 88.1%
NCI-H522
  activity at 10 µM: 88%
COLO 205
  activity at 10 µM: 112%
HCC-2998
  activity at 10 µM: 83.3%
NCI-H460
  activity at 10 µM: 85.9%
PC-3
  activity at 10 µM: 84.7%
MDA-MB-468
  activity at 10 µM: 72.5%
HOP-92
  activity at 10 µM: 88%
A549/ATCC
  activity at 10 µM: 90.5%
MALME-3M
  activity at 10 µM: 87.7%
RXF 393
  activity at 10 µM: 55.7%
MCF7
  activity at 10 µM: 61.4%
HL-60(TB)
  activity at 10 µM: 98.8%
SK-MEL-5
  activity at 10 µM: 79.7%
NCI/ADR-RES
  activity at 10 µM: 85.6%
SF-268
  activity at 10 µM: 77.2%
HS 578T
  activity at 10 µM: 71.2%
ACHN
  activity at 10 µM: 93.4%
A498
  activity at 10 µM: 34.9%
HCT-15
  activity at 10 µM: 90.6%
LOX IMVI
  activity at 10 µM: 55.7%
HOP-62
  activity at 10 µM: 85.4%

## Cc1ccc(/C=C/C(=O)c2ccc(-n3cc(CN4CCN(c5cc6c(cc5F)c(=O)c(C(=O)O)cn6C5CC5)CC4)nn3)cc2)cc1 [Compound 4f, (E)-1-cyclopropyl-6-fluoro-4-oxo-7-(4-((1-(4-(3-(p-tolyl)acryloyl)phenyl)-1H-1,2,3-triazol-4-yl)methyl)piperazin-1-yl)-1,4-dihydroquinoline-3-carboxylic acid]
NCI-H23
  activity at 10 µM: 85.4%
T-47D
  activity at 10 µM: 80%
MDA-MB-435
  activity at 10 µM: 86.6%
UO-31
  activity at 10 µM: 65.7%
OVCAR-4
  activity at 10 µM: 91.4%
SF-295
  activity at 10 µM: 87.6%
CCRF-CEM
  activity at 10 µM: 56.3%
M14
  activity at 10 µM: 87%
NCI-H522
  activity at 10 µM: 78.3%
COLO 205
  activity at 10 µM: 107%
HCC-2998
  activity at 10 µM: 98.5%
NCI-H460
  activity at 10 µM: 85.8%
PC-3
  activity at 10 µM: 82%
MDA-MB-468
  activity at 10 µM: 92.2%
HOP-92
  activity at 10 µM: 84.6%
A549/ATCC
  activity at 10 µM: 87.3%
MALME-3M
  activity at 10 µM: 102%
RXF 393
  activity at 10 µM: 88.4%
MCF7
  activity at 10 µM: 64.8%
HL-60(TB)
  activity at 10 µM: 94.3%
SK-MEL-5
  activity at 10 µM: 91.1%
NCI/ADR-RES
  activity at 10 µM: 102%
SF-268
  activity at 10 µM: 72.6%
HS 578T
  activity at 10 µM: 83.6%
ACHN
  activity at 10 µM: 93.7%
A498
  activity at 10 µM: 57.4%
HCT-15
  activity at 10 µM: 95%
LOX IMVI
  activity at 10 µM: 50.4%
HOP-62
  activity at 10 µM: 87.4%

## COc1ccc(/C=C/C(=O)c2ccc(-n3cc(CN4CCN(c5cc6c(cc5F)c(=O)c(C(=O)O)cn6C5CC5)CC4)nn3)cc2)cc1 [Compound 4g, (E)-1-Cyclopropyl-6-fluoro-7-(4-((1-(4-(3-(4-methoxyphenyl)acryloyl)phenyl)-1H-1,2,3-triazol-4-yl)methyl)piperazin-1-yl)-4-oxo-1,4-dihydroquinoline-3-carboxylic acid]
NCI-H23
  activity at 10 µM: 85.4%
T-47D
  activity at 10 µM: 93.4%
MDA-MB-435
  activity at 10 µM: 82.2%
UO-31
  activity at 10 µM: 65.1%
OVCAR-4
  activity at 10 µM: 94.4%
SF-295
  activity at 10 µM: 90.7%
CCRF-CEM
  activity at 10 µM: 74.6%
M14
  activity at 10 µM: 88.7%
NCI-H522
  activity at 10 µM: 79.1%
COLO 205
  activity at 10 µM: 97.1%
HCC-2998
  activity at 10 µM: 90.7%
NCI-H460
  activity at 10 µM: 82.2%
PC-3
  activity at 10 µM: 89%
MDA-MB-468
  activity at 10 µM: 74.4%
HOP-92
  activity at 10 µM: 84.8%
A549/ATCC
  activity at 10 µM: 89%
MALME-3M
  activity at 10 µM: 84.8%
RXF 393
  activity at 10 µM: 75%
MCF7
  activity at 10 µM: 51.2%
HL-60(TB)
  activity at 10 µM: 99%
SK-MEL-5
  activity at 10 µM: 81.6%
NCI/ADR-RES
  activity at 10 µM: 94.8%
SF-268
  activity at 10 µM: 77.3%
HS 578T
  activity at 10 µM: 65.3%
ACHN
  activity at 10 µM: 89.9%
A498
  activity at 10 µM: 60.5%
HCT-15
  activity at 10 µM: 95.8%
LOX IMVI
  activity at 10 µM: 56.9%
HOP-62
  activity at 10 µM: 85.5%
